Measurements reported in publication PMC11873646 (Acta Pharmaceutica Sinica. B, 2024).
Like-named read-outs stand apart in the source and are kept apart here.

Columns and labels:
[1] = system: ADP-induced platelet aggregation
platelet P2Y12 receptor = platelet P2Y12 receptor (Rattus norvegicus, UniProt Q9EPX4)
[2] = single oral dose 10 mg/kg, 4 h after administration, P < 0.05

Sequence of platelet P2Y12 receptor (Q9EPX4 whole entry): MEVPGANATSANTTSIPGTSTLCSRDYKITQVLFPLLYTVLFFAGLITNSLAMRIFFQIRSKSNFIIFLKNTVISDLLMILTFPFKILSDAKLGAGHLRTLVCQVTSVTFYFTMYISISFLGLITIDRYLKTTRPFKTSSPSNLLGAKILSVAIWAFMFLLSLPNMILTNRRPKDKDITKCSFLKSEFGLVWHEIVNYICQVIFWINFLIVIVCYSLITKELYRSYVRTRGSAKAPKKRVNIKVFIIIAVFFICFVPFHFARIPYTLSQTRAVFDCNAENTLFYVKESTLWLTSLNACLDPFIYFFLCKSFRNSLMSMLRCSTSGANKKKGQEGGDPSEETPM

change in P2Y12 occupancy between D1H4 and D7H4 (platelet P2Y12 receptor; 3 mg/kg oral for 7 consecutive days, male SD rats, P < 0.01): gradual and significant increase | decrease in P2Y12 occupancy in T2DM rats vs control rats (platelet P2Y12 receptor; single oral dose 10 mg/kg, 1 h post-administration, P < 0.05): 50.7% | decrease in P2Y12 occupancy in T2DM rats vs control rats (platelet P2Y12 receptor; single oral dose 10 mg/kg, 4 h post-administration, P < 0.001): 64.4% | time of maximal P2Y12 occupancy (platelet P2Y12 receptor; single oral dose 10 mg/kg, male SD rats, post-administration): 4 h
Structure (SMILES): COC(=O)[C@H](c1ccccc1Cl)N1CCc2sccc2C1 [Clop, Clopidogrel]
mean IPA ([1]; 3 mg/kg repeated oral dose group, male SD rats, 5 umol/L ADP): 14.0 ± 12.5% | mean IPA ([1]; 30 mg/kg repeated oral dose group, male SD rats, 5 umol/L ADP): 59.6 ± 10.1% | time for platelet activity to recover after cessation of administration ([1]; 3, 10 and 30 mg/kg for 7 days, all three dose groups, male SD rats): five | decrease in IPA vs Clop alone ([1]; co-administration 10 mg/kg Clop + 10 mg/kg omeprazole, after 7 days, P < 0.01): 57.3% | increase in MPA vs Clop alone ([1]; co-administration 10 mg/kg Clop + 10 mg/kg omeprazole, after 7 days, P < 0.05): 21.1% | decrease in IPA in T2DM rats vs control rats [1, 2]: 48.3% | increase in MPA in T2DM rats vs control rats [1, 2]: 33.2% | time of peak maximal inhibitory effect on platelet aggregation (MPA, IPA) ([1]; single oral dose 10 mg/kg, male SD rats, post-administration, 5 umol/L ADP): 4 h
